# Test results published in publication PMC6905088 (Biochemical pharmacology, 2019).
# Several values for one entry are separate records, joined by “and”; a condition that tells them apart may be missing. Equal entries are not always repeated. Entries after “also recorded” stand apart in the source; their conditions may differ. Where two headings read alike, the source gives them in different places.
# T1: CYP2C8 (Homo sapiens, UniProt P10632)
# T1 sequence (P10632 1-490): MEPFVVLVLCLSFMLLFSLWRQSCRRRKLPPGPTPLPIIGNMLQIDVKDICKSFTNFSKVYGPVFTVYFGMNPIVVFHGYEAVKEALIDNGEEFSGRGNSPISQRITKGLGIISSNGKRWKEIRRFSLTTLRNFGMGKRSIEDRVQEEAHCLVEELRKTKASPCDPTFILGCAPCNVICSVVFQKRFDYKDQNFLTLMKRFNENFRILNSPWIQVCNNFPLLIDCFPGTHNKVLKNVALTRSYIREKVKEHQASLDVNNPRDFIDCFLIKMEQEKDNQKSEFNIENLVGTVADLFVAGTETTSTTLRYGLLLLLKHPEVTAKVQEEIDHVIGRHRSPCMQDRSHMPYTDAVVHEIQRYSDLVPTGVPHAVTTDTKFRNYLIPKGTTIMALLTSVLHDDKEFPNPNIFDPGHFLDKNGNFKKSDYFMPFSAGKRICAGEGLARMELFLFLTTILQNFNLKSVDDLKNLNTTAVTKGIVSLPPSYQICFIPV
# T2: CYP2A6 (Homo sapiens, UniProt P11509)
# T2 sequence (P11509 1-494): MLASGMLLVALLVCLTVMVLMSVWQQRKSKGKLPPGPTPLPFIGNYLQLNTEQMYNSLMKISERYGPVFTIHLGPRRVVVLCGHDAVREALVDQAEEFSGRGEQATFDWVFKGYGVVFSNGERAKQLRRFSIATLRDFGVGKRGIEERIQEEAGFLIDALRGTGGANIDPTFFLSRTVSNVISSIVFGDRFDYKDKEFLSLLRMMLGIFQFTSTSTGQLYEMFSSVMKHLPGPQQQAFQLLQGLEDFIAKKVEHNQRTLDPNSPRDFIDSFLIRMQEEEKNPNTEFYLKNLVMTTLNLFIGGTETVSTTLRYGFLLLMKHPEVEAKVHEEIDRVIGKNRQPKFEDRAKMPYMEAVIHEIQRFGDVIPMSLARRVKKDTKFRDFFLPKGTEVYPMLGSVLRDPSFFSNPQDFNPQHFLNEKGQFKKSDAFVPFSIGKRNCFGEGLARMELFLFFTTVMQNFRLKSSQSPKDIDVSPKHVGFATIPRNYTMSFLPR
# T3: CYP2B6 (Homo sapiens, UniProt P20813)
# T3 sequence (P20813 1-491): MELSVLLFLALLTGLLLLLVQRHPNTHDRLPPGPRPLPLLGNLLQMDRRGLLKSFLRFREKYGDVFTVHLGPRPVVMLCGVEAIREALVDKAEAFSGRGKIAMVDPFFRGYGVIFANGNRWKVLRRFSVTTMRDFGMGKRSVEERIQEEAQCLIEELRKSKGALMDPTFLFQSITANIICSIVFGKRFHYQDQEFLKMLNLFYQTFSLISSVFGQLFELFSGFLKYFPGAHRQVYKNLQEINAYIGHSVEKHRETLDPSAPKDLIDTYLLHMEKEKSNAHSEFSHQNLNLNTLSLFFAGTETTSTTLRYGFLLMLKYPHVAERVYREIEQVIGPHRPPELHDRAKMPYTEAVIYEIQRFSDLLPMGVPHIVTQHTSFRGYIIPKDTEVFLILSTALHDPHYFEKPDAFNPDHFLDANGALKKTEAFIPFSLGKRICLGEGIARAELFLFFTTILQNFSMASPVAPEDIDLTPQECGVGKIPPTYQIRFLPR
# B1: CYP2C9 (Homo sapiens) (protein)
# chain: MDSLVVLVLCLSCLLLLSLWRQSSGRGKLPPGPTPLPVIGNILQIGIKDISKSLTNLSKVYGPVFTLYFGLKPIVVLHGYEAVKEALIDLGEEFSGRGIFPLAERANRGFGIVFSNGKKWKEIRRFSLMTLRNFGMGKRSIEDRVQEEARCLVEELRKTKASPCDPTFILGCAPCNVICSIIFHKRFDYKDQQFLNLMEKLNENIKILSSPWIQICNNFSPIIDYFPGTHNKLLKNVAFMKSYILEKVKEHQESMDMNNPQDFIDCFLMKMEKEKHNQPSEFTIESLENTAVDLFGAGTETTSTTLRYALLLLLKHPEVTAKVQEEIERVIGRNRSPCMQDRSHMPYTDAVVHEVQRYIDLLPTSLPHAVTCDIKFRNYLIPKGTTILISLTSVLHDNKEFPNPEMFDPHHFLDEGGNFKKSKYFMPFSAGKRICVGEALAGMELFLFLTSILQNFNLKSLVDPKNLDTTPVVNGFASVPPFYQLCFIPV
# B2: CYP1A2 (Homo sapiens) (protein)
# chain: MALSQSVPFSATELLLASAIFCLVFWVLKGLRPRVPKGLKSPPEPWGWPLLGHVLTLGKNPHLALSRMSQRYGDVLQIRIGSTPVLVLSRLDTIRQALVRQGDDFKGRPDLYTSTLITDGQSLTFSTDSGPVWAARRRLAQNALNTFSIASDPASSSSCYLEEHVSKEAKALISRLQELMAGPGHFDPYNQVVVSVANVIGAMCFGQHFPESSDEMLSLVKNTHEFVETASSGNPLDFFPILRYLPNPALQRFKAFNQRFLWFLQKTVQEHYQDFDKNSVRDITGALFKHSKKGPRASGNLIPQEKIVNLVNDIFGAGFDTVTTAISWSLMYLVTKPEIQRKIQKELDTVIGRERRPRLSDRPQLPYLEAFILETFRHSSFLPFTIPHSTTRDTTLNGFYIPKKCCVFVNQWQVNHDPELWEDPSEFRPERFLTADGTAINKPLSEKMMLFGMGKRRCIGEVLAKWEIFLFLAILLQQLEFSVPPGVKVDLTPIYGLTMKHARCEHVQARLRFSIN
# B3: CYP2D6 (Homo sapiens) (protein)
# chain: MGLEALVPLAVIVAIFLLLVDLMHRRQRWAARYPPGPLPLPGLGNLLHVDFQNTPYCFDQLRRRFGDVFSLQLAWTPVVVLNGLAAVREALVTHGEDTADRPPVPITQILGFGPRSQGVFLARYGPAWREQRRFSVSTLRNLGLGKKSLEQWVTEEAACLCAAFANHSGRPFRPNGLLDKAVSNVIASLTCGRRFEYDDPRFLRLLDLAQEGLKEESGFLREVLNAVPVLLHIPALAGKVLRFQKAFLTQLDELLTEHRMTWDPAQPPRDLTEAFLAEMEKAKGNPESSFNDENLRIVVADLFSAGMVTTSTTLAWGLLLMILHPDVQRRVQQEIDDVIGQVRRPEMGDQAHMPYTTAVIHEVQRFGDIVPLGVTHMTSRDIEVQGFRIPKGTTLITNLSSVLKDEAVWEKPFRFHPEHFLDAQGHFVKPEAFLPFSAGRRACLGEPLARMELFLFFTSLLQHFSFSVPTGQPRPSHHGVFAFLVSPSPYELCAVPR
# B4: CYP2C8 (Homo sapiens) (protein)
# chain: T1 sequence (P10632 1-490)
# Key:
# CYP2C9 = CYP2C9 (Homo sapiens, UniProt P11712); assay: Recombinant isozyme kinetic assay; settings: CYP2C9; substrate terbinafine
# CYP2C19 = settings: substrate terbinafine, ref Davis et al. (2019); cited from earlier work
# CYP2C8 = target: T1, CYP2C8; assay: Recombinant isozyme kinetic assay; settings: substrate terbinafine
# CYP2C9 and 3A4 = assay: In vitro to in vivo scaling of P450 kinetics, CYP2C9 and 3A4 combined; settings: scaled to average protein concentrations in human liver microsomes
# CYP3A4 = settings: substrate terbinafine, ref Davis et al. (2019); cited from earlier work
# CYP2A6 = target: T2, CYP2A6; assay: Recombinant isozyme kinetic assay; format: in vitro ADME
# [1] = ref Terbianfine Product Monograph, Canada, 1995; cited from earlier work
# CYP2D6 = CYP2D6 (Homo sapiens, UniProt P10635); assay: Recombinant isozyme kinetic assay; settings: Pathway 1 Step 1, substrate terbinafine
# [2] = ref Vago et al., 1994, Kovarik et al., 1995; cited from earlier work
# CYP2B6 = target: T3, CYP2B6; assay: Recombinant isozyme kinetic assay
# CYP2E1 = CYP2E1 (Homo sapiens, UniProt P05181); assay: Recombinant isozyme kinetic experiments, CYP2E1; format: in vitro ADME
# [3] = substrate: CN(C/C=C/C#CC(C)(C)C)Cc1cccc2ccccc12; assay: cells, lysate or membranes named; settings: substrate terbinafine, pH 7.4, 37.0 °C
# [4] = substrate: CN(C/C=C/C#CC(C)(C)C)Cc1cccc2ccccc12
# [5] = other: CYP2C9, Pathway 2 Step 2.1
# [6] = other: CYP1A2, Pathway 1 Step 1
# [7] = other: CYP1A2, Pathway 2 Step 2.1
# [8] = other: CYP2C8, Pathway 2 Step 2.1
# Chain of CYP2E1 (P05181 whole entry): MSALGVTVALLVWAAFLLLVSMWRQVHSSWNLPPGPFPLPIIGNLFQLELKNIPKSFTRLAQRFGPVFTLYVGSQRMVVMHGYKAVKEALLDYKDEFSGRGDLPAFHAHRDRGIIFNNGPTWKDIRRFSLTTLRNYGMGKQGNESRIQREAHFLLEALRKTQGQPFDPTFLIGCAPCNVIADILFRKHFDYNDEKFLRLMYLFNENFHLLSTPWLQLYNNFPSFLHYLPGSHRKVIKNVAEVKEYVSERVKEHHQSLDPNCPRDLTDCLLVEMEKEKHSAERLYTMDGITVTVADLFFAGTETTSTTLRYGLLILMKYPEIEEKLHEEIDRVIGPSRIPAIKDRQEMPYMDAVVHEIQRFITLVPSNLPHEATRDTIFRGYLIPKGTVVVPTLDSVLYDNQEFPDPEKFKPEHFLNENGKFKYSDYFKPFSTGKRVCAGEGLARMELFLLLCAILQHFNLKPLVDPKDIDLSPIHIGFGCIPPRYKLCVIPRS
molecule,measurement,setting,value
CN(C/C=C/C#CC(C)(C)C)Cc1cccc2ccccc12 [terbinafine],hydroxyterbinafine formation (kinetic constants),CYP2C9,undetected
same,"Hill slope (n), hydroxyterbinafine formation",CYP2C19,1.40 ± 0.11
same,"Hill slope (n), terbinafine dihydrodiol formation",CYP2C19,0.58 ± 0.08
same,hydroxyterbinafine formation (kinetic constants),CYP2C8,undetected
same,terbinafine dihydrodiol formation (kinetic constants),CYP2C8,undetected
same,combined contribution of CYP2C9 and 3A4 to every metabolic step,CYP2C9 and 3A4,over 60%
same,"Hill slope (n), hydroxyterbinafine formation",CYP3A4,1.30 ± 0.16
same,"Hill slope (n), terbinafine dihydrodiol formation",CYP3A4,2.0 ± 0.32
same,metabolite formation / role in terbinafine metabolism,CYP2A6,not able to generate metabolites; also recorded: no role
same,"risk of idiosyncratic liver toxicity, one in N patients",[1],"45,000–54,000"
same,TBF-A formation (steady-state kinetic constants),CYP2D6,undetected
same,reported plasma terbinafine and metabolite levels,[2],≤ 3 µM
same,TBF-A formation (steady-state kinetic constants),"CYP2B6; Pathway 1 Step 1, substrate terbinafine",undetected
same,Km at 30 min,"CYP2B6; human, recombinant CYP2B6 Supersomes, pH 7.4, Km or S50, hydroxyterbinafine formation, substrate terbinafine",300 ± 100 µM
same,role in terbinafine metabolism,CYP2E1,no role
B1,kcat,"[3]; other: CYP2C9, Pathway 1 Step 1",800 ± 170 pmol/min/nmol protein
same,Km,[3]; [5],20 ± 5.1 µM
same,kcat,[3]; [5],400 ± 19 pmol/min/nmol protein
same,K0.5,"[3]; other: CYP2C9, Hill equation",72 ± 92 µM
B2,Km,[3]; [6],75 ± 42 µM and 31 ± 17 µM
same,kcat,[3]; [6],100 ± 12 pmol/min/nmol protein
same,Km,[3]; [7],120 ± 23 µM
same,kcat,[3]; [7],530 ± 38 pmol/min/nmol protein
same,K0.5,"[3]; other: CYP1A2, Hill equation",130 ± 87 µM
same,K0.5,[3]; other: CYP1A2,45 ± 5.7 µM
B3,K0.5,[4],16 ± 3.2 µM and 25 ± 4.1 µM
B4,Km,[3]; [8],72 ± 12 µM
same,kcat,[3]; [8],260 ± 12 pmol/min/nmol protein
